Measured values from patent US7335723B2, “Melanin-concentrating hormone antagonists” (priority 2001, dated 2008).
Where a SMILES comes first, the peptide text is derived from it. Bridges are numbered along the chain shown (N, C = ends). [ ]: non-standard residue; d: D form. Ava = NCCCCC(=O)O

Assays:
rat MCH-1R [1] = biological target: T1, rat MCH-1R (Rattus norvegicus, UniProt P97639); experiment: Aequorin bioluminescence functional assay, MCH-1R agonist activity; details: for MCH-1R Agonist Activation %: 293-AEQ17 cells expressing rat MCH-1R
human MCH-2R [2] = biological target: T2, human MCH-2R (Homo sapiens, UniProt Q969V1); experiment: Aequorin bioluminescence functional assay, MCH-2R agonist activity; details: for MCH-2R Agonist Activation %: 293-AEQ17 cells expressing human MCH-2R
human MCH-1R = human MCH-1R (Homo sapiens, UniProt Q99705); experiment: MCH-1R binding assay, inhibition of [125I]-human MCH binding to membranes
human MCH-2R [3] = biological target: T2, human MCH-2R; experiment: MCH-2R binding assay, inhibition of [125I]-human MCH binding to membranes; design: expressed in transfected cells; host or cells: 293-AEQ17 (aequorin-expressing HEK-293 reporter line); details: inhibition of [125I]-human MCH (Phe13, Tyr19) binding, cell membranes
rat MCH-1R [4] = biological target: T1, rat MCH-1R; experiment: Antagonist assay, 293-AEQ17 cells expressing rat MCH-1R; assay type: cell-based; design: expressed in transfected cells; host or cells: 293-AEQ17 (aequorin-expressing HEK-293 reporter line)
Method: Cells were grown in DMEM (high glucose) supplemented with 10% FBS (Hyclone), 500 μg/ml G418, 200 μg/ml hygromycin and 25 mM HEPES in T75 flasks.
The assay itself involved charging apoaequorin with coelenterazine cp(Molecular Probes, C-14260) and was performed as follows:
1. Confluent T75 flasks are rinsed 1× with 12 ml Hams F12 medium+300 μM glutathione+0.1% FBS.
2. The cells were charged by adding 8 ml Hams F12+0.1% FBS+300 μM glutathione+10 μM coelenterazine, incubate at 37° C. for 1 hour.
4. ECB (6 ml) is added to the flask and the cells are dissociated with a rubber-tipped scraper, centrifuged for 5 minutes at 2500 rpm and the cell pellet resuspended in 5 ml ECB. The cells are counted and diluted to 5×10^5/ml.
Binding and agonist activity at the MCH-1R and MCH-2R was determined as described in Examples 2 and 3. Antagonist IC50 was determined as described in Example 4. Kb was determined using the procedures described in Trends in Pharmacol. Sci. 14:237-239, 1993.

T2 sequence (Q969V1 whole entry): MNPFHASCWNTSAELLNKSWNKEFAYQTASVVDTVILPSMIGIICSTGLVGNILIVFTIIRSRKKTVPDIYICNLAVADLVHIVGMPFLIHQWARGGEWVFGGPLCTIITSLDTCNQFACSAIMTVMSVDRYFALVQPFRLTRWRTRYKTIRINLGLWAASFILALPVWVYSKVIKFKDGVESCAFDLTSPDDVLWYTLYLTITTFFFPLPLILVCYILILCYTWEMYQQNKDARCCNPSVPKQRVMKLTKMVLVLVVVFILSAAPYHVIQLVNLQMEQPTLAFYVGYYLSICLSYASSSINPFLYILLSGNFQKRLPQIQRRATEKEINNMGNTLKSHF
Chain of human MCH-1R (Q99705 whole entry): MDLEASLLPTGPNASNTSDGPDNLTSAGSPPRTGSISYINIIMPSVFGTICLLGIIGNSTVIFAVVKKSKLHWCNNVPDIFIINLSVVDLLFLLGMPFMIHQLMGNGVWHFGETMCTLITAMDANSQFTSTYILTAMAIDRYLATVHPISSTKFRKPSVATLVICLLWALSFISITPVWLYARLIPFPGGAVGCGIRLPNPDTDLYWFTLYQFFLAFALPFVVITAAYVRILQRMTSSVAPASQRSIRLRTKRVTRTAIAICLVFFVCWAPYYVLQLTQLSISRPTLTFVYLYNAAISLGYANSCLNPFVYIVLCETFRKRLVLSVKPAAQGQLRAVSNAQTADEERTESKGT
T1 sequence (P97639 whole entry): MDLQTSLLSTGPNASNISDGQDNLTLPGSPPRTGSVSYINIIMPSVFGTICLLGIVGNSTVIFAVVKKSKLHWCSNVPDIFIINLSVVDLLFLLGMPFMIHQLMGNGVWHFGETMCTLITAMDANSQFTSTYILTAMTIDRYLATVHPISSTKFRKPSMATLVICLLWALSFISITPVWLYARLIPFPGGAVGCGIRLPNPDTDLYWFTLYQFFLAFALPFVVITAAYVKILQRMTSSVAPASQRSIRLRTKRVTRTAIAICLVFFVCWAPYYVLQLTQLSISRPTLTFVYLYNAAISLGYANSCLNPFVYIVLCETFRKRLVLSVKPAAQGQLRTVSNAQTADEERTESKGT

| EC50 (rat MCH-1R [1]) | MCH-1R Agonist Activation % (rat MCH-1R [1]) | EC50 (human MCH-2R [2]) | IC50 (human MCH-1R) | IC50 (human MCH-2R [3]) | MCH-2R Agonist Activation % (human MCH-2R [2]) | IC50 (rat MCH-1R [4]) | Kb (rat MCH-1R [4]; determined per Trends in Pharmacol. Sci. 14:237-239, 1993) | Compound |
| --- | --- | --- | --- | --- | --- | --- | --- | --- |
| 0.587 µM | 82% | > 10 µM | 0.0037 µM | 0.35 µM |  |  |  | CSCC[C@@H]1NC(=O)[C@@H](NC(=O)[C@H](CCCNC(=N)N)NC(C)=O)CSSC[C@@H](C(N)=O)NC(=O)[C@@H]2CCCN2C(=O)[C@H](CCCNC(=N)N)NC(=O)[C@H](Cc2ccc(O)cc2)NC(=O)[C@H](C(C)C)NC(=O)[C@H](CCCNC(=N)N)NC(=O)CCCCNC(=O)CCCCNC1=O [SEQ. ID. NO. 3] (Ac-RCM[Ava][Ava]RVYRPC-NH2; disulfide 2-11; C-terminus assumed) |
| > 10 µM | 6% | > 10 µM | 0.008 µM | 4 µM | 14% |  |  | CSCC[C@@H]1NC(=O)[C@@H](NC(=O)CCCNC(=N)N)CSSC[C@@H](C(N)=O)NC(=O)CCCCNC(=O)CCCCNC(=O)[C@H](Cc2ccc(O)cc2)NC(=O)[C@H](C(C)C)NC(=O)[C@H](CCCNC(=N)N)NC(=O)CNC(=O)[C@H](CC(C)C)NC1=O [SEQ. ID. NO. 12] |
| > 10 µM | 3% | > 10 µM | 0.003 µM |  | 91% | 0.0029 µM | 0.00125 µM | CSCC[C@@H]1NC(=O)[C@@H](NC(=O)CCCCNC(=N)N)CSSC[C@@H](C(N)=O)NC(=O)CCCCNC(=O)CCCCNC(=O)[C@H](Cc2ccc(O)cc2)NC(=O)[C@H](C(C)C)NC(=O)[C@H](CCCNC(=N)N)NC(=O)CNC(=O)[C@H](CC(C)C)NC1=O [SEQ. ID. NO. 11] |
